# In patent publication US20190117655A1, “Treatment of Biliary Duct Cancer” (ASLAN Pharmaceuticals PTE LTD, priority 2015, published 2019):
# Read-outs that look alike come from different tables or passages of the source.
# Assays:
# [1] = tested on: treatment naïve advanced or metastatic biliary tract cancer (BTC); type: in vivo; conditions: for Median progression-free survival (PFS): at data cut-off
# Protocol: The primary objectives for the phase Ib study are to determine the maximum tolerated dose (MTD) and to characterize the safety profile of varlitinib when given with gem/cis. Secondary objectives include evaluation of preliminary efficacy of the study regimen and to evaluate the pharmacokinetics of varlitinib, and any circulating metabolites. A modified 3+3+3 escalation design was used, with 2 varlitinib dose levels (200 and 300 mg twice daily) combined with cisplatin (25 mg/m^2, IV for 2 hours), followed by Gemcitabine (1000 mg/m^2, 30-minute infusion) on Day 1 and Day 8 in a 3 weeks cycle.
# cholangiocarcinoma = assay: Second line monotherapy trial in cholangiocarcinoma patients, CA19-9 marker; type: in vivo, human
# Source text: CA19-9 is a marker employed in the management of cholangiocarcinoma.
# [2] = tested on: stage IV cholangiocarcinoma; assay: Example 7: person, stage IV cholangiocarcinoma, Varlitinib with cisplatin/5-FU then monotherapy; type: in vivo, human
# Protocol: A person with stage IV cholangiocarcinoma newly diagnosed in 2014 received surgery (percutaneous […] cholangial drainage and transcatheter […] embolization), followed by adjuvant treatment of Varlitinib 400 mg BID combined with cisplatin s/5-FU 28-day cycle. After cycle 6 (14 Jul. 2015), only 400 mg BID Varlitinib was taken. Patient completed 10 cycles of monotherapy. At Cycle 11 Day 1, dose was reduced to 300 mg BID alternate days. […] 2015. Progressive disease observed in cycle 16 of monotherapy 12 Apr. 2016.
# [3] = tested on: advanced or metastatic biliary tract cancer; assay: Example 10: Phase 2A single arm study of varlitinib plus capecitabine in Chinese patients (NCT03231176); type: in vivo, human; conditions: Varlitinib 300 mg BID plus capecitabine 1000 mg/m^2 BID 2 weeks on, 1 week off; ongoing study
# Protocol: This study is to assess the efficacy of varlitinib (300 mg twice daily in a 21-day cycle) plus capecitabine (1,000 mg/m^2 twice daily for 2 weeks followed by a 7-day rest period) in patients with advanced or metastatic BTC.
# Primary Objective: • To assess the efficacy of varlitinib plus capecitabine in patients with advanced or metastatic biliary tract cancer who progressed on first line of systemic therapy as measured by Objective Response Rate (ORR) based on RECIST v1.1.
# Secondary Objectives: • To evaluate the efficacy of varlitinib plus capecitabine, as measured by duration of confirmed response (DoR), progression-free survival (PFS), overall survival (OS) and disease control rate (DCR) • To assess the safety and tolerability of varlitinib when combined with capecitabine
# A phase 2A, single arm, multicentre study of varlitinib plus capecitabine in Chinese patients with advanced or metastatic biliary tract cancer who progressed on at least 1 line of systemic therapy.
# The Study duration is divided into 3 different stages.
# • Have histologically or cytologically confirmed advanced (unresectable) or metastatic BTC, including intrahepatic or extrahepatic CCA, gallbladder cancer and carcinoma of Ampulla of Vater. […]
# [4] = tested on: stage IV cholangiocarcinoma; assay: Example 1: person, stage IV EGFR positive cholangiocarcinoma, Varlitinib monotherapy; type: in vivo, human
# [5] = tested on: intrahepatic cholangiocarcinoma, stage IV; assay: Example 8: person, stage IV intrahepatic cholangiocarcinoma, Varlitinib with mFOLFOX6 then monotherapy (ASLAN001-002SG); type: in vivo, human; conditions: after cycle 18
# Source text: They received left hemihepatectomy followed by 6 cycles of adjuvant gemcitabine and cisplatin.
# [6] = Cohort of 200 mg BID, with gem/cis
# [7] = Cohort of 300 mg BID, with gem/cis
# [8] = after treatment cycle 6, Varlitinib 400 mg bi-daily monotherapy
smiles,measurement,setting,value
"C[C@@H]1COC(Nc2ccc3ncnc(Nc4ccc(OCc5nccs5)c(Cl)c4)c3c2)=N1 [Varlitinib, (R)—N4-[3-Chloro-4-(thiazol-2-ylmethoxy)-phenyl]-N6-(4-methyl-4,5,-dihydro-oxazol-2-yl)-quinazoline-4,6-diamine]",Median progression-free survival (PFS),"[1]; 200 mg cohort, with gem/cis",238 days
same,Median progression-free survival (PFS),"[1]; 300 mg cohort, with gem/cis",not reached
same,"DCR overview: Complete Response, patients","[1]; All, with gem/cis",0
same,"DCR overview: Non-responders, patients","[1]; All, with gem/cis",4
same,"DCR overview: PD, patients","[1]; All, with gem/cis",0
same,"DCR overview: Partial Response, patients","[1]; All, with gem/cis",7
same,"DCR overview: Responders, patients","[1]; All, with gem/cis",17
same,"DCR overview: Responders, share of evaluable patients","[1]; All, with gem/cis",(81.0%)
same,"DCR overview: SD (≤12 weeks), patients","[1]; All, with gem/cis",2
same,"DCR overview: SD (≥12 weeks), patients","[1]; All, with gem/cis",10
same,"ORR overview: Complete Response, patients","[1]; All, with gem/cis",0
same,"ORR overview: PD, patients","[1]; All, with gem/cis",0
same,"ORR overview: Partial Response, patients","[1]; All, with gem/cis",7
same,"ORR overview: Partial Response, share of evaluable patients","[1]; All, with gem/cis",(33.3%)
same,"ORR overview: SD (≥6 weeks), patients","[1]; All, with gem/cis",12
same,"DCR overview: Complete Response, patients",[1]; [6],0
same,"DCR overview: Non-responders, patients",[1]; [6],1
same,"DCR overview: PD, patients",[1]; [6],0
same,"DCR overview: Partial Response, patients",[1]; [6],4
same,"DCR overview: Responders, patients",[1]; [6],10
same,"DCR overview: Responders, share of evaluable patients",[1]; [6],(90.9%)
same,"DCR overview: SD (≤12 weeks), patients",[1]; [6],1
same,"DCR overview: SD (≥12 weeks), patients",[1]; [6],6
same,"ORR overview: Complete Response, patients",[1]; [6],0
same,"ORR overview: PD, patients",[1]; [6],0
same,"ORR overview: Partial Response, patients",[1]; [6],4
same,"ORR overview: Partial Response, share of evaluable patients",[1]; [6],(36.4%)
same,"ORR overview: SD (≥6 weeks), patients",[1]; [6],7
same,"DCR overview: Complete Response, patients",[1]; [7],0
same,"DCR overview: Non-responders, patients",[1]; [7],3
same,"DCR overview: PD, patients",[1]; [7],0
same,"DCR overview: Partial Response, patients",[1]; [7],3
same,"DCR overview: Responders, patients",[1]; [7],7
same,"DCR overview: Responders, share of evaluable patients",[1]; [7],(70.0%)
same,"DCR overview: SD (≤12 weeks), patients",[1]; [7],1
same,"DCR overview: SD (≥12 weeks), patients",[1]; [7],4
same,"ORR overview: Complete Response, patients",[1]; [7],0
same,"ORR overview: PD, patients",[1]; [7],0
same,"ORR overview: Partial Response, patients",[1]; [7],3
same,"ORR overview: Partial Response, share of evaluable patients",[1]; [7],(30%)
same,"ORR overview: SD (≥6 weeks), patients",[1]; [7],5
same,Antitumor activity,"[1]; both 200 mg and 300 mg cohorts, Varlitinib plus gem/cis",Antitumor activity was observed
same,Patients with partial response per RECIST v1.1,"[1]; both cohorts, with gem/cis",7 patients
same,Patients with stable disease more than 12 weeks,"[1]; both cohorts, with gem/cis",10 patients
same,All-grade adverse event: anaemia,"[1]; human, in vivo",33%
same,All-grade adverse event: decreased appetite,"[1]; human, in vivo",38%
same,All-grade adverse event: diarrhoea,"[1]; human, in vivo",38%
same,All-grade adverse event: nausea,"[1]; human, in vivo",38%
same,All-grade adverse event: neutrophil decreased,"[1]; human, in vivo",38%
same,All-grade adverse event: platelet decreased,"[1]; human, in vivo",52%
same,"Dose limiting toxicities observed, number of patients","[1]; human, in vivo",3 patients
same,Grade ≥3 adverse event: anaemia,"[1]; human, in vivo",19%
same,Grade ≥3 adverse event: neutrophil decreased,"[1]; human, in vivo",33%
same,Grade ≥3 adverse event: platelet decreased,"[1]; human, in vivo",29%
same,Disease control rate,[1]; with gem/cis,81.0%
same,Reduction in CA19-9,"cholangiocarcinoma; one patient, within one month of initiating Varlitinib",90%
same,CA19-9 levels,"cholangiocarcinoma; second line Varlitinib monotherapy, cholangiocarcinoma patients",significant reduction
same,Cycle of treatment in which first response was observed,"[2]; Varlitinib 400 mg BID with cisplatin/5-FU, 28-day cycle",2 cycle
same,Cycle in which progressive disease was observed,[2]; Varlitinib monotherapy after cycle 6,16 cycle
same,Disease control,[2]; varlitinib monotherapy after 6 cycles of varlitinib with cisplatin/5-FU,remarkable disease control
same,Safety and tolerability,[3],safe and tolerated without any unexpected adverse events
same,Decrease in size of liver tumours,[4]; [8],up to 23%
same,Tumour marker CA 19-9 after treatment,[4]; [8],~250 U/ml
same,"Tumour marker CA 19-9, starting level",[4]; level from which the marker fell,~900 U/ml
same,"Reduction in tumor size, best response from baseline","[5]; 9 cycles Varlitinib 400 mg BID with mFOLFOX6, then 9 cycles monotherapy",53%
same,Tumor assessment status,[5],partial response
